# Source: patent US9335323B2, “Method for sorting of pluripotent cells” (KYOTO UNIVERSITY, priority 2012, dated 2016)
# Key:
# human ES cells [1] = assay: Microscopy and FACS of human ES cells and differentiated cells; format: cell-based
# Method: Cells were prepared as above. After staining with 1 μM Compound 1 for 1 hour, cells were rinsed with PBS and cultured for additional 24 hours. Fluorescent microscopy was performed by using Olympus IX71 with DP72. CsA was added at the concentration of 10 μM during staining with Compound 1 and following culture until analysis. For FACS analysis, the cells were washed twice with ice-cold PBS and then dissociated with 0.25% trypsin-EDTA into a single cell suspension for direct analysis. The proportions of cells with Compound 1 were examined on a FACSCalibur flow cytometer (Becton Dickenson, Calif., USA) with reference to a baseline of untreated undifferentiated or differentiated hESCs.
# human ES cells [2] = assay: Fluorescence microscopic imaging of human ES cells and retinoic acid-differentiated cells; format: cell-based; settings: 1 μM, 2 hours
# Method: The hES cell line KhES-1 was maintained as described previously (Suemori, H. et al. Biochem. Biophys. Res. Commun. 2006, 345, 926-932). To induce differentiation of hESCs, cells seeded onto Matrigel-coated plate were cultured for 4 days with 500 nM all-trans retinoic acid (Sigma R2625) in DMEM supplemented with 10% FBS. After staining with 1 μM Compound 1 for 2 hours, cells were rinsed with PBS and kept in fresh medium (without dye). Fluorescent microscopy was performed by using Olympus IX71 with DP72.
# ABCC1 (MRP1) = ABCC1 (MRP1) (Homo sapiens, UniProt P33527); assay: Accumulation of fluorescent compound in cells with different ABCC1 (MRP1) expression; format: cell-based; settings: stained cells regardless of expression level
# Method: (§1) Cells were subcultured in 35 mm/glass base dish (IWAKI) at a density of 5×10^5 cells per dish in DMEM containing 10% FBS for 24-48 hours. Then, cells were incubated in DMEM containing 10% FBS and the compounds for 2 hours at 37° C., washed with phosphate-buffered saline (PBS), and observed using a confocal microscope (LSM 700; Carl Zeiss).
# (§2) MDR1-expressing model cell lines (KB/MDR1) were established from KB3-1, a cell line with no MDR1 expression. KB/MDR1 and KB3-1 were treated with Compound 1 for 2 hrs. Then, their images were observed under a fluorescent microscope (FIG. 4c, 4d). […] Similar experiments were conducted with ABCG2 and ABCC1 (MRP1).
# human iPS cells [3] = assay: Flow cytometry (FACS) of mixtures of human iPS cells and feeder cells; format: cell-based
# Method: Human iPS cells (clone#201B7) cells (Takahashi, K. et al. Cell 2007, 131, 861-872) were plated at a density of 2×10^5 cells/well of 6-well plate on SNL feeder cells (McMahon, A. P. and Bradley, A., Cell, 62, 1073-1085, 1990). Six days after plating, the cells were incubated with 2 μM Compound 1 (Table 2) for 3 hours (fluorescence microscopic images were taken at this point). The cells were dissociated with Accutase (Invitrogen) into single cells and stained with a-SSEA-4-Alexa647 for 30 min at room temperature. After washing, FACS (FACS Aria II) analysis was performed.
# ABCB1 (MDR1) [4] = target: T1, ABCB1 (MDR1) (Homo sapiens, UniProt P08183); assay: Accumulation of fluorescent compound in KB3-1 and KB/MDR1 cells; format: cell-based
# T1 construct: expressed in transfected cells; host or cells: KB/MDR1 (derived from KB3-1)
# Method: (§3) KB/MDR1, stably expressing human MDR1, and KB3-1 host cells (Ueda, K et al., PNAS 84, 3004-3008, 1987) were maintained in DMEM supplemented with 10% FBS in a humidified incubator (5% CO2) at 37° C. Cells were subcultured in 35 mm/glass base dish (IWAKI) at a density of 5×10^5 cells per dish in DMEM containing 10% FBS for 24-48 hours.
# ABCB1 (MDR1) [5] = assay: as above; format: cell-based, human; settings: KB3-1 cells with no MDR1 expression, 2 hrs
# Method: as §3
# human iPS cells [6] = assay: Sub-cellular localization in human iPS cells (co-staining with MitoRed, CCCP); format: cell-based; settings: for cells in which mitochondria are stained: human iPS cells and feeder cells; for sub-cellular localization: human iPS cells on feeder cells
# Method: Human iPS cells (clone#201B7) were plated on SNL feeder cells in 24-well plate. One day after plating, the cells were incubated with 1 μM Compound 1 for 4 hours at 37° C. After removing Compound 1 by washing with PBS, the cells were incubated with 9.6 nM MitoRed for 30 min at 37° C. The cells were rinsed with PBS and kept in fresh medium (without dye). Fluorescence microscopic images were taken by using Carl Zeiss Axioinvert 100M
# ABCG2 = target: T2, ABCG2 (Homo sapiens, UniProt Q9UNQ0); assay: Accumulation of fluorescent compound in cells with different ABCG2 expression; format: cell-based; settings: stained cells regardless of expression level
# T2 sequence (Q9UNQ0 1-655): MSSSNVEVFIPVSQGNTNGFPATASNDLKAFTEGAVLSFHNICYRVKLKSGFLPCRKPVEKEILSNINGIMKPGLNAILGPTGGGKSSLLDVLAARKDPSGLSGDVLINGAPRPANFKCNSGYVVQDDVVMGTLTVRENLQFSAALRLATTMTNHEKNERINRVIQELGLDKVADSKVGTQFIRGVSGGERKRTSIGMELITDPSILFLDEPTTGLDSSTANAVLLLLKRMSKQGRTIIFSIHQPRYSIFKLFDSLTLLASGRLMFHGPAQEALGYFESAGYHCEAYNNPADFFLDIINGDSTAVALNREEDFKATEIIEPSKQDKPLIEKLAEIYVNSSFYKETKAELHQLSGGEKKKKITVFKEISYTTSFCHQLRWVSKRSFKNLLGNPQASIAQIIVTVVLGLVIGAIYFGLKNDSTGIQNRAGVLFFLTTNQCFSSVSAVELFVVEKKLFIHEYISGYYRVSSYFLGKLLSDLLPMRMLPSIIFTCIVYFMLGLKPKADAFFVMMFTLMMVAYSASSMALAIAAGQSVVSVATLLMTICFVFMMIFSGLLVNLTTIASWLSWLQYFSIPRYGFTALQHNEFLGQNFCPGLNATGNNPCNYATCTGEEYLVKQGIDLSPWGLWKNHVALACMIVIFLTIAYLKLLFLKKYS
# Method: as §1, §2
# human iPS cells [7] = assay: Fluorescence microscopic imaging of partially differentiated human iPS cells (donut-shaped colonies); format: cell-based; settings: over-grown, 4 μM, 4.5 hours
# Method: Human iPS cells (clone#201B7) were plated on SNL feeder cells in 96-well plate. […] These cells were incubated with 4 μM Compound 1 for 4.5 hours at 37° C. Fluorescence microscopic images were taken by using Carl Zeiss Axioskop.
# [8] = tested on: mitochondrial proteins of human iPS cells; assay: 2-DE and mass analysis of mitochondrial proteins labeled in human iPS cells; format: cell-based; settings: 1 μM, 4 hours, 2-dimensional SDS-PAGE
# Method: Human iPS cells were treated with the chloroacetyl derivative of Compound 1 (Compound 22) (1 μM) for 4 hours, and then washed twice with PBS. After treatment with CTK solution (Reprocell) to remove SNL feeder cells, human iPS cells were harvested with treatment of accutase. Mitochondria fraction was obtained from the cell pellet by using ProteoExtract® Cytosol/Mitochondria Fractionation kit according to the manufacturer's instruction. Isoelectric focusing (IEF) was performed by using ampholine (pH 3.5-10, Phamalyte 3-10 for IEF, GE Healthcare). Then, the IEF strips were separated on 10% SDS-PAGE gel for 2D analysis. 2D fluorescence image was acquired using the Typhoon 9400 scanner (GE healthcares) at excitation/emission wavelengths of 532 nm/580 nm. The fluorescence-labeled spots were excised from the gel for mass analysis.
# human iPS cells [9] = assay: Image-based screening: fluorescence staining of human iPS cells versus feeder cells; format: cell-based; settings: fluorescence images, human iPS cells on SNL feeder cells, FIG. 1A
# Method: Fluorescent-compound libraries were provided from Young-Tae Chang's group (Ahn, Y-H., Lee, J-S. and Chang, Y-T. J. Am. Chem. Soc. 2007, 129, 4510-4511). Human iPS cells (clone#[…]) were plated on SNL feeder cells in 96-well plate. Five days after plating, fluorescent compounds were added at the final concentration of 4 μM. After incubation overnight, fluorescence microscopic images were taken by using Carl Zeiss Axioskop.
# [10] = doubly stained with Compound 1 and anti-SSEA-4 antibody
# [11] = mixture of human iPS cells and feeder cells, 2 μM, 3 hours, flow cytometry
# T1 sequence (P08183 whole entry): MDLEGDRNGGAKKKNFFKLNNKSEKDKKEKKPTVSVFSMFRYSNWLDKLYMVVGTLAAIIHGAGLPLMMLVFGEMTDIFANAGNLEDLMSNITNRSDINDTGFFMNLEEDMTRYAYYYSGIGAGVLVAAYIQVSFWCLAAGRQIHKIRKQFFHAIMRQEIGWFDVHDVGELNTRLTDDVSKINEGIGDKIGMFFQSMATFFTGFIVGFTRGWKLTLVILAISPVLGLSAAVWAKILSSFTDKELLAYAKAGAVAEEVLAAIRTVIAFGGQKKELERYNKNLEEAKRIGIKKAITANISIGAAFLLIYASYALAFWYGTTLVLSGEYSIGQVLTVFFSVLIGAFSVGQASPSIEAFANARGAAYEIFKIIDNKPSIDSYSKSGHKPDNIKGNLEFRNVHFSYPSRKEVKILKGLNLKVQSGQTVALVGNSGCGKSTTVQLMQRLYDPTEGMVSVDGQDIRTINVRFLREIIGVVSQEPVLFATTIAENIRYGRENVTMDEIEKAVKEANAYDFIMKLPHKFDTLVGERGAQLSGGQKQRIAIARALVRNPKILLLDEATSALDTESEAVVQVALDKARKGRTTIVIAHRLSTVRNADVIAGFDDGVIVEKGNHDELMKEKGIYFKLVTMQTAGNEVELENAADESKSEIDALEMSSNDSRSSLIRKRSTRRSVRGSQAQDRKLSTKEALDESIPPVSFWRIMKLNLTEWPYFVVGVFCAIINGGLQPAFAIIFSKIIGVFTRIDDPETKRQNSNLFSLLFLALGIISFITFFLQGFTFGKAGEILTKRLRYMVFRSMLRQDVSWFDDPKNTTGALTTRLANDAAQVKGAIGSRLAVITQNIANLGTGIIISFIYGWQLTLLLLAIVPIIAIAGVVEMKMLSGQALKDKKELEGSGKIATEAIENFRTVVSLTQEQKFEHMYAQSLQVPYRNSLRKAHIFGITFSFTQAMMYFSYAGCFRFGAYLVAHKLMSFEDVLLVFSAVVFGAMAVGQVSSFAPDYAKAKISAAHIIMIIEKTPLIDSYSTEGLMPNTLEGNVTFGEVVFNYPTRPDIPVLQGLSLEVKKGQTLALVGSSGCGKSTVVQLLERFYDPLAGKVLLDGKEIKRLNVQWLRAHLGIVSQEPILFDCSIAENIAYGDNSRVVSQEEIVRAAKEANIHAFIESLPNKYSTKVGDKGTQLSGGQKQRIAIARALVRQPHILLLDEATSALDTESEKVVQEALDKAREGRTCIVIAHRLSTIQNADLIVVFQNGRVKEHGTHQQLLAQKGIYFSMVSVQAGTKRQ
# ABCC1 (MRP1), sequence (P33527 whole entry): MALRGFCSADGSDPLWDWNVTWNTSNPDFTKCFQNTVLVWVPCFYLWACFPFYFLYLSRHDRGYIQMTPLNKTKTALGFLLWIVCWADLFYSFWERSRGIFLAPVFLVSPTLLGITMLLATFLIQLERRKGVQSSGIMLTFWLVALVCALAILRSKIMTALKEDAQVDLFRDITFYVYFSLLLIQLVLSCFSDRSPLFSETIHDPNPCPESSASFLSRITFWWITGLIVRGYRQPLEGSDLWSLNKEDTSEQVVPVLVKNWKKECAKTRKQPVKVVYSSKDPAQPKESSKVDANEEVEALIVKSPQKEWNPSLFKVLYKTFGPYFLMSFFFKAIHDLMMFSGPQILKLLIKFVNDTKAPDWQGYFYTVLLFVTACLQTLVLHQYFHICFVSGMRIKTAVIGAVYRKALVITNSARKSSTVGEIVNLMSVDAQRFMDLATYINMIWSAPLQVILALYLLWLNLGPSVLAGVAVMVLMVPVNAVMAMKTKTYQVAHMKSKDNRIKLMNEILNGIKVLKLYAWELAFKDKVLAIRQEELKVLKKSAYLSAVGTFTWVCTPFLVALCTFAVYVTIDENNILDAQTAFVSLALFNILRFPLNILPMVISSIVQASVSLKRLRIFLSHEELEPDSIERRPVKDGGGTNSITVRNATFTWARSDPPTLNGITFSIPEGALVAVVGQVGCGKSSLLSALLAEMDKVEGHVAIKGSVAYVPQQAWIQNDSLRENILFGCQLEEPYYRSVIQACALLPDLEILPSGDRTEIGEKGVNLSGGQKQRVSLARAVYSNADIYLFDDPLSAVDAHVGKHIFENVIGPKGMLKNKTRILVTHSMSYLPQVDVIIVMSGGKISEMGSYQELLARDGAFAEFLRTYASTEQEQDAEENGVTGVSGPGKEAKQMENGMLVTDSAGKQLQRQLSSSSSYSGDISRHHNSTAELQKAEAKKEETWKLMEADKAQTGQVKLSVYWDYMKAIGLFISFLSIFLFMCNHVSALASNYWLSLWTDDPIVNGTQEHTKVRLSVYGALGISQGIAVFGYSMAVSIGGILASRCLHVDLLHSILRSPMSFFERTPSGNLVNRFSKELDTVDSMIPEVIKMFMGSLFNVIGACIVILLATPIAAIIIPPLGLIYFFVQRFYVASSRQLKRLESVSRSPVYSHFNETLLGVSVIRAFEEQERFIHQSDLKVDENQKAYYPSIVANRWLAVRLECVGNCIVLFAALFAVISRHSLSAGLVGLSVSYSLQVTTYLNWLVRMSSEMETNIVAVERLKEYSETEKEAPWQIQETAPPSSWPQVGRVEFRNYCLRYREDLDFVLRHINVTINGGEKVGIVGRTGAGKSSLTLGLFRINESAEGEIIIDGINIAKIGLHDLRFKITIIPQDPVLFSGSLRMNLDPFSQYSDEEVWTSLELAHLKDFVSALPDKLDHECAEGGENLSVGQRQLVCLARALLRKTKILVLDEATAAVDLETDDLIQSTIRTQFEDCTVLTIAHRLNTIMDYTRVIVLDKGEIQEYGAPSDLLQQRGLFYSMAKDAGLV
smiles,measurement,setting,value
N=c1ccc2c(-c3ccc(F)cc3)c3ccc(N)cc3oc-2c1 [Compound 1],fluorescence of human ES cells,"human ES cells [1]; 1 μM, 1 hour, microscopy",strong fluorescence
same,labeling of differentiated cells in the presence of cyclosporine A,human ES cells [1]; cyclosporine A (MDR1 inhibitor) 10 μM,even the differentiated cells were labeled
same,fluorescence of differentiated cells,"human ES cells [1]; derived from human ES cells by retinoic acid, 1 μM, 1 hour, microscopy",little
same,staining of human ES cells relative to differentiated cells,human ES cells [1]; flow cytometric analysis,~100 times
same,staining after partial differentiation by retinoic acid,human ES cells [2]; 500 nM retinoic acid 4 days,less densely stained parts of colonies
same,staining of human ES cell colonies compared with feeder cells,human ES cells [2],stained more strongly than feeder cells
same,substrate for ABCC1 (MRP1),ABCC1 (MRP1),not a substrate
same,SSEA-4-negative cells not stained by Compound 1,human iPS cells [3]; [10],55.2%
same,SSEA-4-positive cells also stained by Compound 1,human iPS cells [3]; [10],42.4%
same,specificity of staining for iPS cells,human iPS cells [3]; human iPS cells versus feeder cells,capable of staining iPS cells specifically
same,Compound 1-negative population,human iPS cells [3]; [11],56.6%
same,Compound 1-positive population,human iPS cells [3]; [11],43.4%
same,fluorescent signals in MDR1-expressing cells,"ABCB1 (MDR1) [4]; KB/MDR1 cells, 2 hrs",undetectable
same,substrate for ABCB1 (MDR1),ABCB1 (MDR1) [4]; KB/MDR1 versus KB3-1,good substrate
same,staining of KB3-1 cells,ABCB1 (MDR1) [5],strongly stained
same,staining pattern in the presence of CCCP,"human iPS cells [6]; CCCP 5 μM, 1 μM, 2 hours",remained the same
same,cells in which mitochondria are stained,human iPS cells [6],only in iPS cells
same,sub-cellular localization,human iPS cells [6],overlaps with that of MitoTracker Red
same,substrate for ABCG2,ABCG2,not a substrate
same,staining of donut-shaped iPS cell colonies,human iPS cells [7],selectively stained undifferentiated parts of those colonies but not the central parts
N=c1ccc2c(-c3ccc(F)cc3)c3ccc(NCCCCCCCCCCNC(=O)CCl)cc3oc-2c1 [Compound 22],fluorescently labeled mitochondrial protein identified by mass-sequencing,[8],ADH1 protein
same,selectivity for human iPS cells relative to Compound 1,human iPS cells [6]; human iPS cells,slightly less than that of Compound 1
same,sub-cellular localization,human iPS cells [6],localized in mitochondria of human iPS cells
C/N=c1\ccc2c(-c3ccc(F)cc3)c3ccc(NC)cc3oc-2c1 [Compound 35],staining of human iPS cells compared with feeder cells,human iPS cells [9],stained human iPS cells stronger than feeder cells
N=c1ccc2c(-c3ccccc3F)c3ccc(N)cc3oc-2c1 [Compound 36],staining of human iPS cells compared with feeder cells,human iPS cells [9],stained human iPS cells stronger than feeder cells
"ClCc1ccc(C2=c3cc4c5c(c3Oc3c2cc2c6c3CCCN6CCC2)CCC[N+]=5CCC4)cc1.[Cl-] [MitoRed, reference compound]",cells in which mitochondria are stained,human iPS cells [6],both in human iPS cells and feeder cells
